This note sets out measurements from ChEMBL document CHEMBL1201862, “PubChem BioAssay data set” (2004).

In general, GI50 refers to the concentration that inhibits growth by half.

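Growth conditions: 96-well plates. Treatment: test compound, 48 hours, 5 concentrations. Analysis: linear interpolation between bracketing concentrations; unreached endpoints set to highest concentration. GI50 marks 50% less growth.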 Calls of active or inactive are those of the source. Cut-off read from the data, not from the text of the source: active = GI50 up to about 1.1 µM and inactive = higher.

Holding throughout (assay): DTP human tumour cell line panel, 48 h
Test [1] has as its system BT-549.
Test [2] relates to CAKI-1.
Test [3] relates to DU-145.
For test [4], the system named is HCC 2998.
The test system of test [5] is HCT-116.
Test [6] deals with HCT-15.
For test [7], the system named is HOP-62.
Test [8] concerns IGROV-1.
Test [9] has as its system MDA-MB-231.
Test [10] has as its system Malme-3M.
For test [11], the system named is NCI-H522.
Test [12] deals with NCI/ADR-RES.
For test [13], the system named is OVCAR-3.
Test [14] relates to OVCAR-4.
Test [15] relates to OVCAR-5.
Test [16] has as its system RXF 393.
Test [17] has as its system SK-MEL-5.
Test [18] has as its system UACC-257.
Test [19] has as its system CCRF-CEM.
In test [20] the test system is T47D.

Take `CC(C)OC(=O)C1=C2c3ncccc3C(=O)N2[C@@H](Cl)[C@H](Cl)[C@H]1Cl`: the GI50 is 36.9 µM (inactive) in test [1]; > 100 µM (inactive) in test [2]; > 100 µM (inactive) in [3]; > 100 µM (inactive) in test [4]; 50.6 µM (inactive) in test [5]; 70.3 µM in test [6]. In addition, the GI50 in test [7] was > 100 µM (inactive); in test [8] it was 31.1 µM (inactive); in test [9], > 100 µM (inactive); in [10] it was 28.8 µM (inactive); in test [11], 26.2 µM (inactive); in test [12], > 100 µM (inactive). Moreover, the GI50 was > 100 µM (inactive) in test [13]; > 100 µM (inactive) in [14]; > 100 µM (inactive) in test [15]; > 100 µM (inactive) in [16]; 83 µM (inactive) in test [17]; 34 µM (inactive) in test [18].

`CCOC(=O)c1c(SC(=O)c2ccc(Cl)cc2)n(-c2ccccc2)c(=S)n(-c2ccccc2)c1=O`: the GI50 was > 100 µM (inactive) in test [2]; > 100 µM (inactive) in [19]; > 100 µM (inactive) in [3]; > 100 µM (inactive) in [4]; > 100 µM (inactive) in test [5]; greater than 100 µM in test [6]. Besides, the GI50 in test [7], in [8], in [9], in test [10], in test [11] and in test [12] was > 100 µM (inactive) each time. For the same molecule, the GI50 in [13], in test [14], in [15], in [16], in test [20] and in test [18] was > 100 µM (inactive) throughout.

As to `CCCCCCCCCCCCCCCCOCC(CC(F)(F)P(=O)(OCC)OCC)OC(C)=O` (centres undefined), the GI50 in test [1] is 15.2 µM (inactive); in test [2], 16.6 µM (inactive); in [3], 15.4 µM (inactive); in test [4], 8.69 µM (inactive); in test [5], 3.17 µM (inactive); in test [6] it was 5.94 µM. In addition, the GI50 in test [8] is 8.49 µM (inactive); in test [9], 14.9 µM (inactive); in test [10] it was 10.6 µM (inactive); in test [11], 13.1 µM (inactive); in [12] it was 16.3 µM (inactive); in test [13], 17.5 µM (inactive). Further, the GI50 in test [14] was 14.9 µM (inactive); in test [15], 18.3 µM (inactive); in test [16] it was 23.8 µM (inactive); in [17], 21.1 µM (inactive); in [18], 17.5 µM (inactive).

Consider `O=[N+]([O-])c1ccc2c(c1)Sc1ccccc1N2CCCCCl`, for which the GI50 in test [1], in test [2], in test [19], in test [3], in test [4] and in test [5] was > 100 µM (inactive) each time. Further, the GI50 in test [6] is greater than 100 µM; in test [7], > 100 µM (inactive); in test [8], > 100 µM (inactive); in test [9], > 100 µM (inactive); in [10] it was > 10 µM (inactive); in test [11], > 100 µM (inactive). Also, the GI50 in [12] was > 100 µM (inactive); in [13] it was > 100 µM (inactive); in test [14] it was 3.86 µM (inactive); in test [15], > 100 µM (inactive); in test [16] it was > 100 µM (inactive); in test [17] it was > 100 µM (inactive). Besides, in test [18], the GI50 was > 100 µM (inactive).

Turning to `COc1cc(COC(=O)N2CCCCC2C(=O)O)c([N+](=O)[O-])cc1OC` (centres undefined), the GI50 in test [1] is > 100 µM (inactive); in test [19], > 100 µM (inactive); in test [3], > 100 µM (inactive); in [4] it was > 100 µM (inactive); in [5] it was > 100 µM (inactive); in [6], greater than 100 µM. For the same molecule, the GI50 in [7], in test [8], in test [10], in [12], in test [13] and in [15] was > 100 µM (inactive) in each case. The GI50 in test [16], in test [17], in [20] and in test [18] was > 100 µM (inactive) throughout.

On to `Nc1ccc(-c2nc3ccc(F)cc3s2)cc1I`, for which the GI50 in [1] was > 100 µM (inactive); in test [2] it was > 100 µM (inactive); in test [19], > 21.2 µM (inactive); in test [3], > 100 µM (inactive); in [4], 0.121 µM (active); in test [5] it was < 0.01 µM (active). The GI50 was greater than 100 µM in [6]; 47.1 µM (inactive) in [7]; < 0.01 µM (active) in test [8]; > 54.2 µM (inactive) in [9]; > 100 µM (inactive) in [10]; > 63.1 µM (inactive) in [11]. The GI50 in test [12] is > 31 µM (inactive); in [15], 0.0515 µM (active); in test [16], > 26.1 µM (inactive); in [17] it was > 74.6 µM (inactive); in [18], > 100 µM (inactive).

Turning to `CC(C)CCn1nc(N)c2nc3ccccc3nc21`, the GI50 is > 100 µM (inactive) in [1]; 64.4 µM (inactive) in [2]; 46.2 µM (inactive) in test [19]; > 100 µM (inactive) in [4]; 56 µM (inactive) in [5]; greater than 10 µM in test [6]. Also, the GI50 in test [7], in test [8], in test [10], in test [11], in [12] and in [13] was > 100 µM (inactive) throughout. For the same molecule, the GI50 in [14], in test [15], in test [16] and in test [18] was > 100 µM (inactive) each time.

With `O=c1[nH]c(=O)n(C2OC(CO)C(O)C2O)cc1Oc1ccccc1` (centres undefined), the GI50 was > 100 µM (inactive) in test [2]; > 100 µM (inactive) in [19]; > 100 µM (inactive) in [3]; > 100 µM (inactive) in test [4]; > 100 µM (inactive) in [5]; greater than 100 µM in [6]. Moreover, the GI50 in test [7], in test [8], in test [9], in [10], in test [11] and in [12] was > 100 µM (inactive) each time. Further, the GI50 in [13], in test [14], in [15], in [16], in test [17] and in [20] was > 100 µM (inactive) throughout. Also, the GI50 in test [18] is > 100 µM (inactive).

On to `CC(=O)Nc1ccc2nc(-c3ccccn3)c(-c3ccccn3)nc2c1`, for which the GI50 was > 100 µM (inactive) in [1]; > 100 µM (inactive) in [2]; > 100 µM (inactive) in test [19]; > 100 µM (inactive) in test [3]; > 100 µM (inactive) in test [4]; greater than 100 µM in test [6]. In addition, the GI50 in [8], in test [9], in [10], in [11], in test [12] and in test [13] was > 100 µM (inactive) each time. For the same molecule, the GI50 in [14] was > 100 µM (inactive); in test [15], > 100 µM (inactive); in [16], 89.7 µM (inactive); in [17] it was > 100 µM (inactive); in test [18], > 100 µM (inactive).

On to `CCN(CC)CCN1C(=O)C(=O)N(c2cccc3ccccc23)C1=O`, for which the GI50 in test [2] is > 10 µM (inactive); in [19], > 10 µM (inactive); in test [3], > 10 µM (inactive); in test [4] it was > 10 µM (inactive); in [5] it was > 10 µM (inactive); in [6] it was greater than 10 µM. The GI50 in test [7], in test [8], in test [9], in test [10], in test [11] and in test [12] was > 10 µM (inactive) each time. Moreover, the GI50 in [13], in test [14], in [15], in test [16], in [17] and in [20] was > 10 µM (inactive) throughout.

`COc1ccc(OC)c2c1C1CCC(=O)N1CN2C(C)=O` (centres undefined): the GI50 in test [2] is > 100 µM (inactive); in test [19], > 100 µM (inactive); in test [3], > 100 µM (inactive); in test [4] it was > 100 µM (inactive); in [5], > 100 µM (inactive); in test [6], greater than 100 µM. Besides, the GI50 in [7], in test [8], in test [9], in [10], in [11] and in test [12] was > 100 µM (inactive) in each case. In addition, the GI50 in [13], in test [14], in test [15], in test [16], in [17] and in test [20] was > 100 µM (inactive) in each case. Also, in [18], the GI50 was > 100 µM (inactive).
